The source of these data is patent publication US20090023755A1, “USE OF ISTRADEFYLLINE FOR TREATING BEHAVIORAL DISORDERS” (KYOWA HAKKO KOGYO CO., LTD., priority 2002, published 2009).

The subject of data set [1] is dd-strain male mice. Description: Acute toxicity test. The settings on record: oral administration, mortality seven days after administration. The class given is in vivo. From the text: Compound (I) was orally or intraperitoneally administered to groups of dd-strain male mice weighing 20±1 g, each group consisting of three mice.
The subject of data set [2] is 6-hydroxydopamine-treated young rats. Briefly: Tic/Tourette like symptoms in 6-hydroxydopamine-treated young rats. In kind it is in vivo, rat. How it is done: Methods: 6-HODA was injected into the left medial forebrain bundle of a rat to induce a unilateral lesion of dopaminergic neurons, followed by repeated oral administration of L-DOPA at 20 mg/kg twice daily for 2 weeks to make a rat model of tic-like symptoms.
Tic-like, abnormal involuntary movements were observed after day 3 during repetitive treatment with L-DOPA. Two subtypes of involuntary movements were classified as axial (lateral torsion of the head, neck and trunk towards the side contralateral to the lesion, including swing of the head) and forelimb (abnormal movements contralateral to the lesion, including kicking movements of the forelimb).
The severity of these movements was assigned a score from 0 to 4 to each movement as follows.
(score 0) no deviation of head
(score 1) lateral deviation of head: […]
(score 2) lateral deviation of head: more than 30°, and 60° or less
(score 3) torsion of head and upper trunk: more than 60°, and 90° or less
(score 4) torsion of head and trunk: more than 90°
(score 0) no movements of both distal and proximal forelimbs
(score 1) tiny oscillatory movements of the distal forelimb
(score 2) movements of low amplitude but causing visible translocation of both distal and proximal forelimbs
(score 3) translocation of the whole limb with visible contraction of shoulder muscles
(score 4) vigorous limb and shoulder movements of maximal amplitude
Compound (I) was repeatedly administered orally to 6-HODA treated rats at 1 mg/kg for 23 days, and Tic-like, abnormal involuntary movements were observed every 10 minutes for 3 hours, each time for one minute.
Peak score was obtained by adding the peak score for forelimb to that for axial (Data are expressed as mean±standard deviation in the following Table 1). Peak time means the time after the first administration when peak score was score observed.

The test system of data set [3] is young rats. Description: Acquisition of a delayed alternation task in young rats. The class given is in vivo, rat. The following applies: for Choice reaction times per session (mean ± s.e.m.) / Simple reaction times per session (mean ± s.e.m.): 0.3 mg/kg p.o. -60 min. How it is done:
The following experiment was carried out according to a method described in Drug Dev. Res., 35, p. 83-95 (1996) with a slight modification. Methods: Male Rj: Wistar (Han) rats were used for the experiments. Before being tested, the rats were given the standard diet each day. Several 45 mg food pellets (these were also used in the delayed alternation sessions described below) were also given them to habituate them to this novel food.
The aim of this phase is to train rats, on the presentation of a single centralized retractable lever, to press on it to receive a food pellet.
The rats were subjected to 10 lever-pressing acquisition sessions in the experimental chambers according to a fixed ratio (FR1) schedule of reinforcement. Reinforcement consists of food pellets (45 mg) delivered after each lever-press. Each daily session lasts 15 minutes. All rats received an intraperitoneal administration of physiological saline 30 minutes before each session. During the first 7 sessions, the Skinner boxes were equipped with only one fixed lever situated centrally above the food receptacle, to avoid spatial preference for the right or the left side of the experimental panel. After the 7th lever-pressing session, the boxes were equipped with two retractable levers located on either side of the food receptacle. The rats were then subjected to 3 consecutive sessions in which the left or the right lever was pseudo-randomly presented every 5 seconds. At the end of this phase 80 to 100% of the rats acquired the lever press-response. […] If some rats were close to establishing steady lever-pressing behavior they were given extra training with the aim of attaining at least 10 rats per group. Rats were assigned to treatment groups matched on the basis of their performance.
Subsequent to lever-press acquisition sessions, all rats were subjected to delayed alternation sessions. The test was conducted for 5 days. During this phase, the boxes were equipped with two retractable levers on each side of the food distributor. Each session consisted of 35 successive trials every 10 seconds. In each trial, the rat was first presented with one lever (left or right). When the rat pressed on the lever, the rat was given a food pellet, the lever was retracted and 5 seconds later two levers were presented. The rat had to learn to press on the lever opposite to that previously presented to gain a food pellet (non-matching to sample).
Compound (I) was suspended in 0.5% methylcellulose in distilled water and administered orally 60 minutes before each session.
The effect of Compound (I) was evaluated by measuring simple reaction time, which means the reaction time to each one-lever presentation, and choice reaction time, which means the reaction time to each two-lever presentation.

The subject of data set [4] is 6-hydroxydopamine-treated neonatal rats. Description: Locomotor activity in 6-hydroxydopamine-treated neonatal rats. The class given is in vivo, rat. How it is done: Methods: Female neonatal SD rats were used for the experiments. 100 μg 6-Hydroxydopamine (6-HODA) was dissolved in a 0.1% solution of ascorbic acid in saline, and the obtained solution or 0.1% ascorbic acid in saline (control) was injected first at 3 days of age into the left lateral ventricle of the rat and secondly at 6 days of age into the right lateral ventricle of the rat. At 30-37 days, locomotor activity was measured by placing the rat in a transparent acrylic box (50×50×50 cm) 60 minutes after the drug administration using digital counters with infrared sensors (Scanet MV-10MT; Toyo Sangyo Co. Ltd., Toyama, Japan).
Compound (I) was suspended in a 0.3% aqueous Tween 80 solution, and administered orally to 6-HODA treated rats.

The mark [5] stands for this setting: 1 mg/kg orally, compared with before administration.
Setting [6] is: 0.3 mg/kg orally, compared with vehicle control rats.

Consider `CCn1c(=O)c2c(nc(/C=C/c3ccc(OC)c(OC)c3)n2C)n(CC)c1=O` [Compound (I), (E)-8-(3,4-dimethoxystyryl)-1,3-diethyl-7-methylxanthine], for which the “minimum lethal dose (MLD)” value in data set [1] is listed as “greater than 1000 mg/kg”. In addition, the peak score entry is on record as “decreased” in data set [2] (setting [5]); 5.6 ± 1.4 in data set [2] (L-DOPA + compound 1 mg/kg p.o., Day 1, n = 6, mean ± standard deviation, forelimb + axial); 4.4 ± 1.6 in data set [2] (L-DOPA + compound 1 mg/kg p.o., Day 9, n = 6, mean ± standard deviation, forelimb + axial); 1.6 ± 0.6 in data set [2] (L-DOPA + compound 1 mg/kg p.o., Day 23, n = 6, mean ± standard deviation, forelimb + axial). Also, the peak time entry in data set [2] (setting [5]) is reported as “decreased”; in data set [2] (L-DOPA + compound 1 mg/kg p.o., Day 1), 30 min; in data set [2] (L-DOPA + compound 1 mg/kg p.o., Day 9) it was 40 min; in data set [2] (L-DOPA + compound 1 mg/kg p.o., Day 23), 20 min. Also, in data set [3] (setting [6]), the choice reaction times result is “significantly decreased”. In data set [3] (setting [6]), the simple reaction times result is listed as “significantly decreased”. Further, the “Choice reaction times per session (mean ± s.e.m.)” value in data set [3] (session S1) stood at 1.71 ± 0.13 s; in data set [3] (session S2) it was 1.52 ± 0.10 s; in data set [3] (session S3) it was 1.22 ± 0.12 s; in data set [3] (session S4), 1.13 ± 0.18 s; in data set [3] (session S5), 0.92 ± 0.09 s. Besides, the “Simple reaction times per session (mean ± s.e.m.)” value in data set [3] (session S1) came out at 3.16 ± 0.24 s; in data set [3] (session S2), 2.49 ± 0.28 s; in data set [3] (session S3), 1.63 ± 0.20 s; in data set [3] (session S4), 1.73 ± 0.21 s; in data set [3] (session S5), 1.33 ± 0.11 s. The locomotor activity entry in data set [4] (6-HODA treated rats, 1.25 mg/kg orally, measured 60 minutes after administration) is listed as “decreased locomotor activities”; in data set [4] (6-HODA treated rats, 5 mg/kg orally, measured 60 minutes after administration), “decreased locomotor activities”; in data set [4] (control rats treated only with 0.1% ascorbic acid in saline (vehicle), oral), “increased locomotor activities”.
